Source: the supplement of paper PMC11061612

Columns and labels:
Experiment in all cases: combination Emax (second highest fraction inhibited in the dose matrix, 72 h); higher = more inhibition; extreme values may be limits of the assay
[1] = system: DiFi (Colorectal Carcinoma)
Outline: (§1)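 After 24 hours at 37°C and 5% CO2 in 1536-well plates, cells in DMEM/F12 or RPMI plus 10% FBS received two-drug dose matrices for 72 hours. Viability came from CellTiter-Glo 2.0 luminescence and was scaled as inhibition, anchored at 0 by vehicle wells and at 1 by blank wells. Combination Emax is taken as the second-highest inhibition in the matrix, and Bliss excess as the observed combination effect less EA + EB − EA·EB, with EA and EB the single-agent effects.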

ES1 (Ewing's Sarcoma) = system: ES1 (Ewing's Sarcoma)
Outline: as §1

ES8 (Ewing's Sarcoma) = system: ES8 (Ewing's Sarcoma)
Outline: as §1

[2] = system: GR-ST (B-Lymphoblastic Leukemia)
Outline: as §1

[3] = system: HL-60 (Acute Myeloid Leukemia)
Outline: as §1

[4] = system: KARPAS-45 (T-Lymphoblastic Leukemia)
Outline: as §1

[5] = system: L-540 (Hodgkin's Lymphoma)
Outline: as §1

LN-18 (Glioblastoma) = system: LN-18 (Glioblastoma)
Outline: as §1

MEL-JUSO (Melanoma) = system: MEL-JUSO (Melanoma)
Outline: as §1

[6] = system: MFM-223 (Breast Carcinoma)
Outline: as §1

[7] = system: MOLT-16 (T-Lymphoblastic Leukemia)
Outline: as §1

[8] = system: MS751 (Cervical Carcinoma)
Outline: as §1

[9] = system: SR (Other Blood Carcinomas)
Outline: as §1

[10] = system: SU-DHL-8 (B-Cell Non-Hodgkin's Lymphoma)
Outline: as §1

[11] = system: SW1417 (Colorectal Carcinoma)
Outline: as §1

[12] = system: SW837 (Colorectal Carcinoma)
Outline: as §1

TC-71 (Ewing's Sarcoma) = system: TC-71 (Ewing's Sarcoma)
Outline: as §1

[13] = system: TE-6 (Esophageal Squamous Cell Carcinoma)
Outline: as §1

[14] = system: TOV-112D (Ovarian Carcinoma)
Outline: as §1

Row | SMILES | combination Emax [1] | combination Emax (ES1 (Ewing's Sarcoma)) | combination Emax (ES8 (Ewing's Sarcoma)) | combination Emax [2] | combination Emax [3] | combination Emax [4] | combination Emax [5] | combination Emax (LN-18 (Glioblastoma)) | combination Emax (MEL-JUSO (Melanoma)) | combination Emax [6] | combination Emax [7] | combination Emax [8] | combination Emax [9] | combination Emax [10] | combination Emax [11] | combination Emax [12] | combination Emax (TC-71 (Ewing's Sarcoma)) | combination Emax [13] | combination Emax [14]
1 | NC1(C(=O)N[C@@H](CCO)c2ccc(Cl)cc2)CCN(c2ncnc3[nH]ccc23)CC1 [Capivasertib] + C[C@@H]1COCCN1C2=NC(=NC(=C2)C3(CC3)[S@](=N)(=O)C)C4=C5C=CNC5=NC=C4 [AZD6738] (first compound max 10 µM, 7x7, partner max 10 µM) | 0.779 | 0.972 | 0.961 | 0.809 | 0.805 | 0.854 | 0.94 | 0.846 | 0.524 | 0.888 | 1 | 0.498 | 0.954 | 0.964 | 0.497 | 0.385 | 0.959 | 0.754 | 0.718
2 | CC(=O)c1c(C)c2cnc(Nc3ccc(N4CCNCC4)cn3)nc2n(C2CCCC2)c1=O [Palbociclib] + Cc1c2c(nn1C)CSCc1cc(n(C)n1)CSc1cc(c3ccccc3c1)OCCCc1c(C(=O)O)n(C)c3c-2c(Cl)ccc13 [AZD5991] (first compound max 10 µM, 7x7, partner max 1 µM) | 0.548 | 0.917 | 0.65 | 0.719 | 0.994 | 0.99 | 0.981 | 0.477 | 0.305 | 0.388 | 1 | 0.833 | 0.993 | 0.683 | 0.229 | 0.161 | 0.586 | 0.425 | 0.776
3 | COc1nnc2ccc(N3CCC(c4ccc(OCCN5CCN(C)C(=O)[C@H]5C)cc4)CC3)nn12 [AZD5153] + CCN(CCO)CCCOc1ccc2c(Nc3cc(CC(=O)Nc4cccc(F)c4)[nH]n3)ncnc2c1 [AZD2811] (first compound max 1 µM, 7x7, partner max 1 µM) | 0.667 | 0.612 | 0.994 | 0.818 | 0.984 | 1 | 0.716 | 0.632 | 0.37 | 0.415 | 1 | 0.789 | 0.913 | 0.982 | 0.477 | 0.57 | 0.884 | 0.632 | 0.718
4 | NC1(C(=O)N[C@@H](CCO)c2ccc(Cl)cc2)CCN(c2ncnc3[nH]ccc23)CC1 [Capivasertib] + CC(C)n1c(=O)n(C)c2cnc3cc(F)c(-c4ccc(OCCCN5CCCCC5)nc4)cc3c21 [AZD1390] (first compound max 10 µM, 7x7, partner max 0.3 µM) | 0.592 | 0.452 | 0.545 | 0.611 | 0.225 | 0.581 | 0.265 | 0.432 | 0.164 | 0.864 | 0.719 | 0.19 | 0.361 | 0.107 | 0.276 | 0.25 | 0.263 | 0.599 | 0.175
5 | Cn1cnc2c(F)c(Nc3ccc(Br)cc3Cl)c(C(=O)NOCCO)cc21 [Selumetinib] + CC(C)n1c(=O)n(C)c2cnc3cc(F)c(-c4ccc(OCCCN5CCCCC5)nc4)cc3c21 [AZD1390] (first compound max 10 µM, 7x7, partner max 0.3 µM) | 0.641 | 0.0951 | 0.263 | 0.225 | 0.743 | 0.0319 | 0.0301 | 0.157 | 0.349 | 0.0965 | 0.277 | 0.144 | 0.129 | 0.0761 | 0.437 | 0.567 | 0.237 | 0.388 | 0.138
6 | Cn1cnc2c(F)c(Nc3ccc(Br)cc3Cl)c(C(=O)NOCCO)cc21 [Selumetinib] + CCN(CCO)CCCOc1ccc2c(Nc3cc(CC(=O)Nc4cccc(F)c4)[nH]n3)ncnc2c1 [AZD2811] (first compound max 10 µM, 7x7, partner max 1 µM) | 0.813 | 0.532 | 0.996 | 0.316 | 0.918 | 0.926 | 0.194 | 0.34 | 0.427 | 0.17 | 1 | 0.639 | 0.942 | 0.354 | 0.559 | 0.554 | 0.838 | 0.353 | 0.349
7 | Cc1nc(Nc2ncc(C(=O)Nc3c(C)cccc3Cl)s2)cc(N2CCN(CCO)CC2)n1 [Dasatinib] + CC(=O)Nc1cccc(-n2c(=O)n(C3CC3)c(=O)c3c(Nc4ccc(I)cc4F)n(C)c(=O)c(C)c32)c1 [Trametinib] (first compound max 2 µM, 7x7, partner max 1 µM) | 0.784 | 0.0713 | 0.223 | 0.361 | 0.703 | 0.592 | 0.148 | 0.353 | 0.497 | 0.561 | 0.326 | 0.282 | 0.245 | 0.0526 | 0.834 | 0.764 | 0.146 | 0.535 | 0.749
8 | NC1(C(=O)N[C@@H](CCO)c2ccc(Cl)cc2)CCN(c2ncnc3[nH]ccc23)CC1 [Capivasertib] + COc1nnc2ccc(N3CCC(c4ccc(OCCN5CCN(C)C(=O)[C@H]5C)cc4)CC3)nn12 [AZD5153] (first compound max 10 µM, 7x7, partner max 1 µM) | 0.718 | 0.694 | 0.798 | 0.832 | 1 | 1 | 0.605 | 0.779 | 0.36 | 0.852 | 1 | 0.794 | 0.769 | 0.899 | 0.482 | 0.538 | 0.797 | 0.754 | 0.665
9 | COc1nnc2ccc(N3CCC(c4ccc(OCCN5CCN(C)C(=O)[C@H]5C)cc4)CC3)nn12 [AZD5153] + Cc1c2c(nn1C)CSCc1cc(n(C)n1)CSc1cc(c3ccccc3c1)OCCCc1c(C(=O)O)n(C)c3c-2c(Cl)ccc13 [AZD5991] (first compound max 1 µM, 7x7, partner max 1 µM) | 0.768 | 0.955 | 0.891 | 0.798 | 1 | 1 | 1 | 0.616 | 0.306 | 0.587 | 1 | 0.919 | 0.968 | 0.998 | 0.459 | 0.571 | 0.996 | 0.77 | 0.986
10 | NC1(C(=O)N[C@@H](CCO)c2ccc(Cl)cc2)CCN(c2ncnc3[nH]ccc23)CC1 [Capivasertib] + Cn1cnc2c(F)c(Nc3ccc(Br)cc3Cl)c(C(=O)NOCCO)cc21 [Selumetinib] (first compound max 10 µM, 7x7, partner max 10 µM) | 0.905 | 0.52 | 0.533 | 0.678 | 0.874 | 0.627 | 0.188 | 0.603 | 0.545 | 0.894 | 0.805 | 0.263 | 0.582 | 0.0919 | 0.586 | 0.603 | 0.438 | 0.736 | 0.313
11 | Cn1cnc2c(F)c(Nc3ccc(Br)cc3Cl)c(C(=O)NOCCO)cc21 [Selumetinib] + C[C@@H]1COCCN1C2=NC(=NC(=C2)C3(CC3)[S@](=N)(=O)C)C4=C5C=CNC5=NC=C4 [AZD6738] (first compound max 10 µM, 7x7, partner max 10 µM) | 0.844 | 0.898 | 0.674 | 0.766 | 0.819 | 0.868 | 0.889 | 0.71 | 0.509 | 0.673 | 1 | 0.476 | 0.889 | 0.936 | 0.583 | 0.544 | 0.945 | 0.671 | 0.657
12 | NC1(C(=O)N[C@@H](CCO)c2ccc(Cl)cc2)CCN(c2ncnc3[nH]ccc23)CC1 [Capivasertib] + CC(=O)c1c(C)c2cnc(Nc3ccc(N4CCNCC4)cn3)nc2n(C2CCCC2)c1=O [Palbociclib] (first compound max 10 µM, 7x7, partner max 10 µM) | 0.619 | 0.765 | 0.64 | 0.75 | 0.799 | 0.982 | 0.214 | 0.731 | 0.518 | 0.882 | 0.924 | 0.236 | 0.844 | 0.571 | 0.269 | 0.151 | 0.511 | 0.723 | 0.542
13 | CS(=O)(=O)CCNCc1ccc(-c2ccc3ncnc(Nc4ccc(OCc5cccc(F)c5)c(Cl)c4)c3c2)o1 [Lapatinib] + C[C@@H](Oc1cc(-c2cnn(C3CCNCC3)c2)cnc1N)c1c(Cl)ccc(F)c1Cl [Crizotinib] (first compound max 10 µM, 7x7, partner max 10 µM) | 1 | 0.965 | 1 | 0.988 | 0.941 | 1 | 0.911 | 0.965 | 0.912 | 0.662 | 0.992 | 0.987 | 1 | 0.694 | 0.669 | 0.772 | 0.758 | 0.835 | 0.791
14 | COc1cc2ncnc(Nc3ccc(F)c(Cl)c3)c2cc1OCCCN1CCOCC1 [Gefitinib] + CC(C)n1c(=O)n(C)c2cnc3cc(F)c(-c4ccc(OCCCN5CCCCC5)nc4)cc3c21 [AZD1390] (first compound max 10 µM, 7x7, partner max 0.3 µM) | 0.919 | 0.353 | 0.178 | 0.39 | 0.0178 | 0.644 | 0.451 | 0.146 | 0.114 | 0.121 | 0.363 | 0.133 | 0.2 | 0.142 | 0.164 | 0.128 | 0.183 | 0.685 | 0.276
